Measured values as given in patent US10167262B2, “Herbicidal substituted 3-arylpyrazoles” (FMC CORPORATION, priority 2014, dated 2019).

What was measured:
Assay in all cases: Test E pre-/postemergence greenhouse test, plant response rating 0-100
Assay type in all cases: in vivo
[1] = tested on: Brazilian crabgrass (Digitaria horizontalis); conditions: Postemergence, scale 0 to 100
Procedure, shortened: (§1)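 Preemergence application to planted silt loam and postemergence application to 2–18 cm seedlings are run simultaneously. Evaluation is visual against controls after 14 to 21 days, scored from 0 (no effect) to 100 (complete control).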

[2] = tested on: Italian ryegrass (Lolium multiflorum); conditions: scale 0 to 100; for Plant response rating, Ryegrass, Italian: Postemergence; for Ryegrass, Italian plant response rating: Preemergence
Procedure, shortened: as §1

[3] = tested on: barnyardgrass (Echinochloa crus-galli); conditions: scale 0 to 100; for Plant response rating, Barnyardgrass: Postemergence; for Barnyardgrass plant response rating: Preemergence
Procedure, shortened: as §1

corn (Zea mays) = conditions: scale 0 to 100; for Plant response rating, Corn: Postemergence; for Corn plant response rating: Preemergence
Procedure, shortened: as §1

[4] = tested on: dayflower (Virginia (VA) dayflower, Commelina virginica); conditions: scale 0 to 100; for Plant response rating, Dayflower, VA: Postemergence; for Dayflower, VA plant response rating: Preemergence
Procedure, shortened: as §1

[5] = tested on: fall panicum (Panicum dichotomiflorum); conditions: scale 0 to 100; for Plant response rating, Panicum, Fall: Postemergence; for Panicum, Fall plant response rating: Preemergence
Procedure, shortened: as §1

[6] = tested on: field bindweed (Convolvulus arvensis); conditions: scale 0 to 100; for Plant response rating, Field Bindweed: Postemergence; for Field Bindweed plant response rating: Preemergence
Procedure, shortened: as §1

[7] = tested on: hairy beggarticks (Bidens pilosa); conditions: scale 0 to 100; for Plant response rating, Beggarticks: Postemergence; for Beggarticks plant response rating: Preemergence
Procedure, shortened: as §1

[8] = tested on: sandbur (southern sandbur, Cenchrus echinatus); conditions: scale 0 to 100; for Plant response rating, Sandbur: Postemergence; for Sandbur plant response rating: Preemergence
Procedure, shortened: as §1

soybean (Glycine max) = conditions: scale 0 to 100; for Plant response rating, Soybean: Postemergence; for Soybean plant response rating: Preemergence
Procedure, shortened: as §1

[9] = tested on: waterhemp (common waterhemp, Amaranthus rudis); conditions: scale 0 to 100; for Plant response rating, Waterhemp: Postemergence; for Waterhemp plant response rating: Preemergence
Procedure, shortened: as §1

[10] = tested on: wild poinsettia (Euphorbia heterophylla); conditions: scale 0 to 100; for Plant response rating, Poinsettia, Wild: Postemergence; for Poinsettia, Wild plant response rating: Preemergence
Procedure, shortened: as §1

SMILES: O=C(c1ccccc1)c1cn(S(=O)(=O)CC(F)(F)F)nc1-c1cc(Cl)cc(Cl)c1 [Compound 3]
- Plant response rating, Crabgrass, Brazil ([1]; 31 g ai/ha): 0
- Plant response rating, Crabgrass, Brazil ([1]; 62 g ai/ha): 0
- Plant response rating, Crabgrass, Brazil ([1]; 125 g ai/ha): 0
- Plant response rating, Crabgrass, Brazil ([1]; 250 g ai/ha): 0
- Plant response rating, Crabgrass, Brazil ([1]; 500 g ai/ha): 0
- Plant response rating, Ryegrass, Italian ([2]; 31 g ai/ha): 0
- Plant response rating, Ryegrass, Italian ([2]; 62 g ai/ha): 0
- Plant response rating, Ryegrass, Italian ([2]; 125 g ai/ha): 0
- Plant response rating, Ryegrass, Italian ([2]; 250 g ai/ha): 0
- Plant response rating, Ryegrass, Italian ([2]; 500 g ai/ha): 0
- Ryegrass, Italian plant response rating ([2]; 31 g ai/ha): 0
- Ryegrass, Italian plant response rating ([2]; 62 g ai/ha): 0
- Ryegrass, Italian plant response rating ([2]; 125 g ai/ha): 0
- Ryegrass, Italian plant response rating ([2]; 250 g ai/ha): 0
- Ryegrass, Italian plant response rating ([2]; 500 g ai/ha): 0
- Plant response rating, Barnyardgrass ([3]; 31 g ai/ha): 0
- Plant response rating, Barnyardgrass ([3]; 62 g ai/ha): 0
- Plant response rating, Barnyardgrass ([3]; 125 g ai/ha): 0
- Plant response rating, Barnyardgrass ([3]; 250 g ai/ha): 0
- Plant response rating, Barnyardgrass ([3]; 500 g ai/ha): 0
- Barnyardgrass plant response rating ([3]; 31 g ai/ha): 0
- Barnyardgrass plant response rating ([3]; 62 g ai/ha): 0
- Barnyardgrass plant response rating ([3]; 125 g ai/ha): 0
- Barnyardgrass plant response rating ([3]; 250 g ai/ha): 0
- Barnyardgrass plant response rating ([3]; 500 g ai/ha): 0
- Plant response rating, Corn (corn (Zea mays); 31 g ai/ha): 0
- Plant response rating, Corn (corn (Zea mays); 62 g ai/ha): 0
- Plant response rating, Corn (corn (Zea mays); 125 g ai/ha): 0
- Plant response rating, Corn (corn (Zea mays); 250 g ai/ha): 0
- Plant response rating, Corn (corn (Zea mays); 500 g ai/ha): 0
- Corn plant response rating (corn (Zea mays); 31 g ai/ha): 0
- Corn plant response rating (corn (Zea mays); 62 g ai/ha): 0
- Corn plant response rating (corn (Zea mays); 125 g ai/ha): 0
- Corn plant response rating (corn (Zea mays); 250 g ai/ha): 0
- Corn plant response rating (corn (Zea mays); 500 g ai/ha): 0
- Plant response rating, Dayflower, VA ([4]; 31 g ai/ha): 0
- Plant response rating, Dayflower, VA ([4]; 62 g ai/ha): 0
- Plant response rating, Dayflower, VA ([4]; 125 g ai/ha): 0
- Plant response rating, Dayflower, VA ([4]; 250 g ai/ha): 0
- Plant response rating, Dayflower, VA ([4]; 500 g ai/ha): 0
- Dayflower, VA plant response rating ([4]; 125 g ai/ha): 0
- Dayflower, VA plant response rating ([4]; 250 g ai/ha): 0
- Dayflower, VA plant response rating ([4]; 500 g ai/ha): 0
- Plant response rating, Panicum, Fall ([5]; 31 g ai/ha): 0
- Plant response rating, Panicum, Fall ([5]; 62 g ai/ha): 0
- Plant response rating, Panicum, Fall ([5]; 125 g ai/ha): 0
- Plant response rating, Panicum, Fall ([5]; 250 g ai/ha): 0
- Plant response rating, Panicum, Fall ([5]; 500 g ai/ha): 0
- Panicum, Fall plant response rating ([5]; 31 g ai/ha): 0
- Panicum, Fall plant response rating ([5]; 62 g ai/ha): 0
- Panicum, Fall plant response rating ([5]; 125 g ai/ha): 0
- Panicum, Fall plant response rating ([5]; 250 g ai/ha): 0
- Panicum, Fall plant response rating ([5]; 500 g ai/ha): 0
- Plant response rating, Field Bindweed ([6]; 31 g ai/ha): 0
- Plant response rating, Field Bindweed ([6]; 62 g ai/ha): 0
- Plant response rating, Field Bindweed ([6]; 125 g ai/ha): 0
- Plant response rating, Field Bindweed ([6]; 250 g ai/ha): 0
- Plant response rating, Field Bindweed ([6]; 500 g ai/ha): 0
- Field Bindweed plant response rating ([6]; 31 g ai/ha): 0
- Field Bindweed plant response rating ([6]; 62 g ai/ha): 0
- Field Bindweed plant response rating ([6]; 125 g ai/ha): 0
- Field Bindweed plant response rating ([6]; 250 g ai/ha): 0
- Field Bindweed plant response rating ([6]; 500 g ai/ha): 65
- Plant response rating, Beggarticks ([7]; 31 g ai/ha): 60
- Plant response rating, Beggarticks ([7]; 62 g ai/ha): 95
- Plant response rating, Beggarticks ([7]; 125 g ai/ha): 98
- Plant response rating, Beggarticks ([7]; 250 g ai/ha): 98
- Plant response rating, Beggarticks ([7]; 500 g ai/ha): 98
- Beggarticks plant response rating ([7]; 31 g ai/ha): 0
- Beggarticks plant response rating ([7]; 62 g ai/ha): 0
- Beggarticks plant response rating ([7]; 125 g ai/ha): 25
- Beggarticks plant response rating ([7]; 250 g ai/ha): 25
- Beggarticks plant response rating ([7]; 500 g ai/ha): 30
- Plant response rating, Sandbur ([8]; 31 g ai/ha): 0
- Plant response rating, Sandbur ([8]; 62 g ai/ha): 0
- Plant response rating, Sandbur ([8]; 125 g ai/ha): 0
- Plant response rating, Sandbur ([8]; 250 g ai/ha): 0
- Plant response rating, Sandbur ([8]; 500 g ai/ha): 0
- Sandbur plant response rating ([8]; 31 g ai/ha): 0
- Sandbur plant response rating ([8]; 62 g ai/ha): 0
- Sandbur plant response rating ([8]; 125 g ai/ha): 15
- Sandbur plant response rating ([8]; 250 g ai/ha): 15
- Sandbur plant response rating ([8]; 500 g ai/ha): 90
- Plant response rating, Soybean (soybean (Glycine max); 31 g ai/ha): 0
- Plant response rating, Soybean (soybean (Glycine max); 62 g ai/ha): 0
- Plant response rating, Soybean (soybean (Glycine max); 125 g ai/ha): 0
- Plant response rating, Soybean (soybean (Glycine max); 250 g ai/ha): 0
- Plant response rating, Soybean (soybean (Glycine max); 500 g ai/ha): 0
- Soybean plant response rating (soybean (Glycine max); 31 g ai/ha): 0
- Soybean plant response rating (soybean (Glycine max); 62 g ai/ha): 0
- Soybean plant response rating (soybean (Glycine max); 125 g ai/ha): 0
- Soybean plant response rating (soybean (Glycine max); 500 g ai/ha): 0
- Plant response rating, Waterhemp ([9]; 31 g ai/ha): 95
- Plant response rating, Waterhemp ([9]; 62 g ai/ha): 98
- Plant response rating, Waterhemp ([9]; 125 g ai/ha): 98
- Plant response rating, Waterhemp ([9]; 250 g ai/ha): 90
- Plant response rating, Waterhemp ([9]; 500 g ai/ha): 98
- Waterhemp plant response rating ([9]; 31 g ai/ha): 0
- Waterhemp plant response rating ([9]; 62 g ai/ha): 50
- Waterhemp plant response rating ([9]; 125 g ai/ha): 75
- Waterhemp plant response rating ([9]; 250 g ai/ha): 85
- Waterhemp plant response rating ([9]; 500 g ai/ha): 98
- Plant response rating, Poinsettia, Wild ([10]; 31 g ai/ha): 0
- Plant response rating, Poinsettia, Wild ([10]; 62 g ai/ha): 0
- Plant response rating, Poinsettia, Wild ([10]; 125 g ai/ha): 0
- Plant response rating, Poinsettia, Wild ([10]; 250 g ai/ha): 15
- Plant response rating, Poinsettia, Wild ([10]; 500 g ai/ha): 10
- Poinsettia, Wild plant response rating ([10]; 125 g ai/ha): 0
- Poinsettia, Wild plant response rating ([10]; 250 g ai/ha): 0
- Poinsettia, Wild plant response rating ([10]; 500 g ai/ha): 0
